We go through 104 compounds from PubChem BioAssay AID1996.

The kinetic solubility is solubility judged after dilution from a stock solution rather than from solid.

≈ marks a conversion by molar mass, not a printed value.

The conditions of the data set: buffer; pH 7.4; 200.0 µM.
`O=C1c2ccccc2CN1C(CO)c1ccccc1` (centres undefined) yielded a solubility (kinetic) of 34.7 µg/mL (≈ 137 µM).
The compound `c1cnc2ccc(-c3ccc4ncccc4c3)cc2c1` had a solubility (kinetic) of 7.7 µg/mL (≈ 30 µM).
In turn, `O=C(CN1CCCCC1)NC(=O)NC1CCCCC1` returned a solubility (kinetic) of over 40.1 µg/mL.
Compound `O=[N+]([O-])c1ccccc1/C=C/c1ccc2ccccc2n1` gave a solubility (kinetic) of under 0.3 µg/mL.
In turn, `O=c1cc(OCc2ccccc2)cc[nH]1` gave a solubility (kinetic) of over 30.2 µg/mL.
The compound `CN(C)c1cccc(C(=O)OCC(=O)N2CCc3ccccc3C2)c1` yielded a kinetic solubility of 27.9 µg/mL (≈ 82.4 µM).
`CC(C)(C)C(=O)OCc1nc(-c2ccc(O)c(O)c2)cs1` displayed a kinetic solubility of 39.5 µg/mL (≈ 129 µM).
For `OC(C#CCCN1CCCCC1)(c1ccccc1)c1ccccc1`, the kinetic solubility came out at 37.7 µg/mL (≈ 118 µM).
For `COc1ccccc1N1C(=O)c2cccc3c(Cl)ccc(c23)C1=O` the value was under 0.7 µg/mL; for `CCOC(=O)C1CCN(c2c(NCCC(C)C)c(=O)c2=O)CC1`, over 48.4 µg/mL; for `Cc1cc2c(=O)oc(-c3ccc(Br)cc3)nc2s1`, under 0.7 µg/mL.
For `Cc1ccc2c(C(=O)CN3CCCCC3)c(C)[nH]c2c1`, the kinetic solubility is over 40.6 µg/mL.
The compound `CCOc1ccc(C(=O)CCN2CCOCC2)cc1.Cl` had a kinetic solubility of 44.9 µg/mL.
For `Cc1nn(CC(=O)NCc2cccnc2)c(C)c1[N+](=O)[O-]` the value was over 43.4 µg/mL; for `Cc1ccc(C(=O)CNc2ccccc2)cc1`, 4.1 µg/mL (≈ 18.2 µM).
Compound `N#C/C(=C\c1ccc2c(c1)OCO2)C(=O)NCc1ccco1` gave a kinetic solubility of 0.6 µg/mL (≈ 2.03 µM). This solubility kinetic is about 6.8-fold lower than that of the compound before.
Take `CC1(C)CC(=O)C(N=Nc2cccc([N+](=O)[O-])c2)=C(O)C1`: the kinetic solubility is over 43.4 µg/mL.
For `Cc1noc(NS(=O)(=O)c2ccc(NC(=O)/C=C/c3ccccc3)cc2)c1C` the value was over 59.6 µg/mL; for `Cc1ccnc(NC(=O)CNC(=O)c2cccs2)c1`, over 41.3 µg/mL; for `CC1CCCCN1C(=O)c1cc(S(=O)(=O)N2CCOCC2)ccc1Cl` (centres undefined), over 58 µg/mL.
The figure for `O=C(O)C1CCN(S(=O)(=O)c2ccc3c(c2)OCCCO3)CC1` is over 51.2 µg/mL.
Take `CNC(=S)N(CCCO)Cc1cc2cc3c(cc2[nH]c1=O)OCO3`: the solubility (kinetic) came out at 8.2 µg/mL (≈ 23.5 µM).
For `Cc1ccc2[nH]c(CSc3ccccc3)cc(=O)c2c1` the value was 14.9 µg/mL (≈ 53 µM).
On to `CCCC(=O)N(Cc1cc(=O)[nH]c2ccccc12)c1ccccc1`, for which the kinetic solubility is over 48.1 µg/mL.
The figure for `COc1ccc(NS(=O)(=O)c2cc(NC(=O)c3ccc(Cl)cc3)ccc2N2CCOCC2)cc1` is 1.5 µg/mL (≈ 2.99 µM); for `C[C@H](NC(=O)c1ccccc1)C(=O)N1CCN(c2ccccc2)CC1` it is over 50.6 µg/mL; for `Cc1ccc(-n2c(O)c(C=NCc3ccccn3)c(=O)[nH]c2=S)cc1` it is 29.6 µg/mL (≈ 84 µM).
With `COc1ccc(CCN=C(C)c2cc(C)c(C)cc2O)cc1OC`, the solubility (kinetic) was over 49.1 µg/mL.
In turn, `CCOC(=O)C1CCN(CCC(=O)Nc2ccc(C)c(C)c2)CC1` yielded a solubility (kinetic) of over 49.9 µg/mL.
In turn, `O=C(NCC(=O)N1CCN(Cc2ccc3c(c2)OCO3)CC1)c1ccccc1F` had a solubility (kinetic) of 1.4 µg/mL (≈ 3.51 µM).
Turning to `COc1ccccc1C(=O)NCCC(=O)Nc1ncccc1O`, the kinetic solubility was over 47.3 µg/mL.
On to `COc1ccc(NCc2cccnc2)cc1`, for which the solubility (kinetic) turned out to be 26.8 µg/mL (≈ 125 µM).
For `CCc1ccc(N2CC(C(=O)Nc3ccc(F)cc3)CC2=O)cc1` (centres undefined) the value was 0.8 µg/mL (≈ 2.45 µM); for `CCc1ccc(CN2CCN(c3ncccn3)CC2)cc1`, 29.9 µg/mL (≈ 106 µM); for `Brc1ccc(-c2cnco2)cc1`, 2.2 µg/mL (≈ 9.82 µM).
On to `Cc1ccc(C#N)c(SCc2ccccc2F)n1`, for which the kinetic solubility is under 0.3 µg/mL.
For `O=C(/C=C/Nc1ccc(S(=O)(=O)Nc2ncccn2)cc1)c1cccs1`, the solubility (kinetic) stood at 6.7 µg/mL (≈ 17.3 µM).
Consider `Cc1ccc(CSC2=NCCN2C(=O)C(C)Oc2ccccc2)cc1` (centres undefined), for which the kinetic solubility was found to be 4.4 µg/mL (≈ 12.4 µM).
In turn, `COc1ccc2cc(C(C)C(=O)N3CCC(C)CC3)ccc2c1` (centres undefined) returned a solubility (kinetic) of 18.8 µg/mL (≈ 60.4 µM).
Compound `Cl.Clc1ccccc1CN1CCNCC1` came in with a kinetic solubility of over 37.1 µg/mL.
For `Cc1ccc(NC(=O)Cn2cnc([N+](=O)[O-])c2)cc1C` the value was over 41.1 µg/mL; for `CC(C)OP(=O)(OC(C)C)C(NC(=O)c1ccccc1)C(N)=O` (centres undefined), over 51.3 µg/mL; for `Cl.OC(c1ccc(Cl)cc1)C(CN1CCOCC1)c1ccccc1` (centres undefined), over 55.2 µg/mL.
For the compound `Cc1ccc(C(=O)NCCNC(=O)COc2ccc(Cl)cc2)cn1`, the kinetic solubility was over 52.2 µg/mL.
`Cc1cc(NC(=O)c2ccc([N+](=O)[O-])cc2Cl)no1`: the kinetic solubility was found to be 16.3 µg/mL (≈ 57.9 µM).
Compound `Cc1ccc(Oc2ncnc(N)c2[N+](=O)[O-])cc1C` showed a kinetic solubility of 4.8 µg/mL (≈ 18.4 µM).
Turning to `O=C1/C(=C/c2cccc([N+](=O)[O-])c2)CSc2ccc(Cl)cc21`, the kinetic solubility is under 0.7 µg/mL.
Consider `O=C1Cc2cc(S(=O)(=O)NCc3ccc(F)cc3)ccc2N1`, for which the solubility (kinetic) was found to be 16.7 µg/mL (≈ 52.1 µM).
`CCC(=O)c1ccc(OCC(=O)Nc2ccc(S(=O)(=O)Nc3cc(C)nc(C)n3)cc2)cc1`: the kinetic solubility is over 70.3 µg/mL.
For the compound `Cn1cnc2c(=O)sc3ccccc3c21`, the solubility (kinetic) is over 32.4 µg/mL.
For `Cc1ccc(S(=O)(=O)N2CCC(N3CCC(C)CC3)CC2)cc1` the value was over 50.5 µg/mL.
`O=S(=O)(c1ccccc1)N1CCN(CCc2ccccc2)CC1`: the kinetic solubility stood at 1.7 µg/mL (≈ 5.14 µM).
In the case of `COc1ccc(C(=O)CSc2nc3ncccc3[nH]2)cc1OC`, the kinetic solubility came to 13.4 µg/mL (≈ 40.7 µM).
As to `Cc1ccnc(SC2CC(=O)N(c3ccc([N+](=O)[O-])cc3)C2=O)n1` (centres undefined), the kinetic solubility was over 51.7 µg/mL.
As to `O=C(N/N=C/C1CCCCC1)c1ccccc1-n1cccc1`, the kinetic solubility is over 44.3 µg/mL.
Take `CC(=O)N(c1nc(CCl)cs1)c1cccc(C)c1C`: the kinetic solubility is over 44.2 µg/mL.
As to `O=C(NCCCN1CCCC1=O)Nc1ccccc1Cl`, the kinetic solubility was over 44.4 µg/mL.
For `Fc1ccc(C2CCCN2Cc2nc(CC3CC3)no2)cc1` (centres undefined) the value was 28.6 µg/mL (≈ 94.9 µM); for `COc1ccc(/C=C/C(=O)NCCc2nc3ccccc3[nH]2)cc1`, 9.9 µg/mL (≈ 30.8 µM); for `COc1ccc(CNC(=O)c2cc(C(=O)C3CC3)c[nH]2)cc1`, 2 µg/mL (≈ 6.7 µM).
`Cc1ccc(C(NC(=O)Nc2ccccn2)C(Cl)(Cl)Cl)cc1F` (centres undefined) returned a solubility (kinetic) of under 0.3 µg/mL.
In the case of `COc1ccccc1NC(=O)COC(=O)c1oc2ccccc2c1C`, the kinetic solubility came to 6 µg/mL (≈ 17.7 µM).
For `O=C(C1CCC(=O)N1Cc1cccs1)N1CCOCC1` (centres undefined), the solubility (kinetic) is over 44.2 µg/mL.
The figure for `COc1ccc(N2CCN(CC(=O)Nc3nc(C)cs3)CC2)cc1` is 49.6 µg/mL (≈ 143 µM); for `O=C(COC(=O)c1ccccc1)NC(=O)NC1CCCC1` it is 23.8 µg/mL (≈ 82 µM).
As to `Cc1cccc(Nc2nc(-c3sc(C)nc3C)cs2)c1`, the solubility (kinetic) worked out at 0.2 µg/mL (≈ 0.663 µM).
On to `CC1(C)[C@H]2CC[C@]1(C)[C@@H](OC(=O)C[N+]1(C)CCOCC1)C2.[I-]`, for which the kinetic solubility stood at 60.1 µg/mL.
For `CCCN1CCN(c2ccc(S(N)(=O)=O)cc2[N+](=O)[O-])CC1`, the kinetic solubility came to 32.9 µg/mL (≈ 100 µM).
`CC(=O)Cn1ncc(N2CCOCC2)c(Br)c1=O`: the solubility (kinetic) was over 47.4 µg/mL.
Regarding `CCCCc1nc(NCCO)c(C#N)c2c1CCCC2`, the solubility (kinetic) was found to be 3.6 µg/mL (≈ 13.2 µM).
Take `O=C(CNC(=O)c1ccccc1F)c1ccc(Br)cc1`: the kinetic solubility worked out at 3.8 µg/mL (≈ 11.3 µM).
`NC(=O)c1ccc(N=C2C(=O)Nc3ccc([N+](=O)[O-])cc32)cc1` displayed a solubility (kinetic) of 13.1 µg/mL (≈ 42.2 µM).
For the compound `Cc1cnc(C(=O)Oc2c(C)ccc(C)c2C)cn1`, the kinetic solubility was 38.2 µg/mL (≈ 149 µM).
For `O=C(COC(=O)c1cc(=O)[nH]c2ccccc12)NCCc1ccccc1` the value was 21.1 µg/mL (≈ 60.2 µM).
The figure for `Cc1ccc(/C=C2/C(=O)ON=C2c2ccccc2)o1` is 38 µg/mL (≈ 150 µM); for `COc1ccccc1C(=O)N/C(=N/c1nc(C)cc(C)n1)Nc1ccccc1` it is 1.1 µg/mL (≈ 2.93 µM).
For `CC(Oc1ccccc1)C(=O)NC1CCCCCCC1` (centres undefined) the value was over 41.3 µg/mL; for `COCCNC(=O)C(=O)Nc1cc2c3c(c1)CC(=O)N3CCC2`, 42.3 µg/mL (≈ 133 µM); for `COCCNC(=O)Cn1nc(-c2ccccc2F)ccc1=O`, over 45.8 µg/mL.
`Cc1ccc(-n2c(C)nn(CC#N)c2=O)cc1` registered a solubility (kinetic) of over 34.2 µg/mL.
For `Cc1ccccc1NC(=O)C1CC(=O)N(Cc2ccccc2)C1` (centres undefined), the solubility (kinetic) is over 46.3 µg/mL.
As for `COC(CNc1ncnc2sc(-c3ccccc3)cc12)OC`, the solubility (kinetic) was found to be 35.9 µg/mL (≈ 114 µM).
Compound `Cc1nc2ccc(NC(=O)N3CCOCC3)cc2nc1C` came in with a kinetic solubility of over 42.9 µg/mL.
With `CC(NC(=O)COC(=O)c1ccccc1O)C1CC2CCC1C2` (centres undefined), the kinetic solubility stood at 14.1 µg/mL (≈ 44.4 µM).
`CCOC(=O)Cn1c(=O)cc(C)c2ccccc21` had a solubility (kinetic) of over 36.8 µg/mL.
For `CCSC1=NCCN1C(=O)Cc1ccc(-c2ccccc2)cc1` the value was 3.3 µg/mL (≈ 10.2 µM); for `COc1ccc(CNc2nccs2)cc1`, 19.5 µg/mL (≈ 88.5 µM); for `C=CCn1cccc(C(=O)Nc2ccc(C)cc2)c1=O`, 39.7 µg/mL (≈ 148 µM).
As to `Cc1ccc(C)c2sc(NC(=O)CN3C(=O)CCC3=O)nc12`, the kinetic solubility was 45.5 µg/mL (≈ 143 µM).
In turn, `COc1ccccc1NC(=O)c1cc(=O)[nH]c2ccccc12` yielded a kinetic solubility of 29.7 µg/mL (≈ 101 µM).
The compound `CCOC(=O)c1sc(NC(=O)CN2CC(C)OC(C)C2)nc1C` (centres undefined) displayed a kinetic solubility of 49 µg/mL (≈ 144 µM). Compared with the last compound, the solubility kinetic is about 1.6-fold higher.
For `CCc1ccc(C(C)NC(=O)C2CCCC2)cc1` (centres undefined) the value was 18.8 µg/mL (≈ 76.6 µM).
For `O=C(C1CCC1)N1CCN(c2ccc(Cl)cc2)CC1` the value was 36.4 µg/mL (≈ 131 µM); for `Cl.O[C@@H]1CCCC[C@H]1N1CCC(c2ccccc2)CC1`, over 44.4 µg/mL; for `CC(C)Cc1ccc(C(C)C(=O)Nc2ccccc2O)cc1` (centres undefined), 1.9 µg/mL (≈ 6.39 µM).
Turning to `O=C(Nc1ccccc1C(F)(F)F)c1ccsc1`, the solubility (kinetic) is over 40.7 µg/mL.
For `Cc1cc(NC(=O)c2cc3cccc([N+](=O)[O-])c3[nH]2)ccc1F` the value was 0.7 µg/mL (≈ 2.23 µM); for `CC1CCCC(NC(=O)C2COc3ccccc3O2)C1C` (centres undefined), 17.2 µg/mL (≈ 59.4 µM); for `O=C(NCc1ccco1)c1ccc(S(=O)(=O)N2CCCCC2)cc1`, 1.9 µg/mL (≈ 5.45 µM).
Regarding `Cc1cc(NC(=O)CN2C(=O)NC(CCc3ccccc3)C2=O)no1` (centres undefined), the solubility (kinetic) was over 51.4 µg/mL.
Consider `COc1ccc(C(=O)CNc2ccccc2Br)cc1`, for which the solubility (kinetic) came out at 5.6 µg/mL (≈ 17.5 µM).
`N#CC(C#N)=CNc1cccnc1` showed a solubility (kinetic) of over 25.5 µg/mL.
`Cn1ccnc1SCC(=O)Nc1cc(F)ccc1F` came in with a kinetic solubility of 41.8 µg/mL (≈ 148 µM).
In the case of `CN(CC(=O)NCCc1ccc(S(N)(=O)=O)cc1)CC(=O)Nc1ccccc1C(F)(F)F`, the kinetic solubility was over 70.9 µg/mL.
